Laboratory results published in patent US5389615A, “Peptides and pharmaceutical composition thereof in the treatment of pain” (British Technology Group Ltd., priority 1988, dated 1995).
Where “and” joins values, the source holds several entries; their conditions need not be identical. Equal entries are not always repeated. Non-standard residues stand in square brackets, D forms with d. Residues, ends and D or L forms follow the SMILES beside them.

Legend:
[1] = test system: hyperalgesia evoked by acetic acid; experiment: Contorsions evoked by acetic acid, Example 19; assay type: in vivo, mice; conditions: for number of contorsions (median), 10 to 20 min after acetic acid: 30 min before acetic acid
Description: The number of contorsions (abdominal constrictions or writhes) was counted in the period between 10 and 20 min after ip challenge with acetic acid by an observer unaware of drug treatment.

[2] = test system: hyperalgesia evoked by DbcAMP; experiment: Rat paw pressure test, hyperalgesia evoked by DbcAMP; assay type: in vivo; conditions: for % change of delta reaction time vs control (=100%) / DELTA REACTION TIME: 200 μg/150 g rat ip 1 h before DbcAMP (100 μg/paw) ipl; for DELTA REACTION TIME: 3 h after DbcAMP, control 17.2
[3] = test system: hyperalgesia evoked by IL-1β; experiment: Modified Randall-Sellito rat paw pressure test, hyperalgesia evoked by IL-1β; assay type: in vivo; conditions: for DELTA REACTION TIME: 3h after IL-1β, control 23.9; for ED50 antagonising IL-1β evoked hyperalgesia / antagonism of hyperalgesia evoked by IL-1β: rats; for antagonism of hyperalgesia evoked by IL-1β: peptide given before IL-1β
Description: The hyperalgesic activity of IL-1β was investigated by a modified Randall-Sellito rat paw pressure test (Ferreira et al, Eur. J. Pharacol. 53, 39-48, 1978).
The IL-1β was given either intraplantar (ipl, injection volume=0.1 ml) or intraperitoneally (ip, injection volume=0.3 ml).
The intensity of hyperalgesia was quantified as the variation of the reaction time (Δ reaction time, sec) obtained by subtracting the value measured 1,2,3 or 4h after administration of the hyperalgesic agent from the pre-injection control reaction time (zero time). The experimenter was unaware of the group treatments.
The vertical bars are standard errors of the means (s.e.m's) of values obtained in groups of 5 rats.
Each symbol or histogram represents the mean response of 5 animals per treatment group. Vertical bars are s.e.m's.
The data are means±s.e.m.'s of 5 animals per treatment group.
Each symbol represents the mean response of 5 animals per treatment group. Vertical bars are s.e.m.'s.
Treatments were given ip, lh before Il-1β, also given ip. There were 5 animals per treatment group.
Delta reaction time was measured 3h after Il-1β administration.
The Control was II-1β (0.05U), given ip.

[4] = test system: hyperalgesia evoked by PGE2; experiment: Rat paw pressure test, hyperalgesia evoked by PGE2; assay type: in vivo; conditions: for DELTA REACTION TIME: 3 h after PGE2, control 16.8; for ED50 antagonising PGE2 evoked hyperalgesia / antagonism of hyperalgesia evoked by PGE2: rats
[5] = test system: febrile rabbits; conditions: Richards and Lipton, Peptides 5 (1984) 815-817; cited from earlier work
[6] = in vivo
[7] = test system: hyperalgesia evoked by IL-1β; conditions: reference analgesics; cited from earlier work
[8] = 20 μg/150 g rat ip 1h before IL-1β (0.05U) ip
[9] = 50 μg/150 g rat ip 1h before IL-1β (0.05U) ip
[10] = 100 μg/150 g rat ip 1h before IL-1β (0.05U) ip
[11] = 200 μg/150 g rat ip 1h before IL-1β (0.05U) ip
[12] = 20 μg/150 g rat ip 1h before PGE2 ipl
[13] = 50 μg/150 g rat ip 1h before PGE2 ipl
[14] = 100 μg/150 g rat ip 1h before PGE2 ipl
[15] = 200 μg/150 g rat ip 1h before PGE2 ipl

SMILES: CC(C)[C@H](NC(=O)[C@H]1CCCN1C(=O)[C@@H](N)CCCCN)C(=O)O [K(D)PV, Lys-D-Pro-Val] (H-Lys-[dP]-Val-OH)
- % reductions from control values in mice injected with saline ([1]; 2 mg/kg ip): -33%
- number of contorsions (median), 10 to 20 min after acetic acid ([1]; 2 mg/kg ip): 19
- % reductions from control values in mice injected with saline ([1]; 10 mg/kg ip): -38%
- number of contorsions (median), 10 to 20 min after acetic acid ([1]; 10 mg/kg ip): 17
- % reductions from control values in mice injected with saline ([1]; 30 mg/kg ip): -45%
- number of contorsions (median), 10 to 20 min after acetic acid ([1]; 30 mg/kg ip): 15.5
- % reductions from control values in mice injected with saline ([1]; 100 mg/kg ip): -74%
- number of contorsions (median), 10 to 20 min after acetic acid ([1]; 100 mg/kg ip): 7
- % reductions from control values in mice injected with saline ([1]; 100 mg/kg po): -52%
- number of contorsions (median), 10 to 20 min after acetic acid ([1]; 100 mg/kg po): 13
- analgesic activity against hyperalgesia evoked by acetic acid, given ip ([1]; ip): dose-related analgesic activity
- % change of delta reaction time vs control (=100%) [2]: -7.0%
- DELTA REACTION TIME [2]: 16.0 ± 0.2 s
- % change of delta reaction time vs control (=100%) [3, 8]: -23.9%
- DELTA REACTION TIME [3, 8]: 18.2 ± 0.4 s
- % change of delta reaction time vs control (=100%) [3, 9]: -64.4%
- DELTA REACTION TIME [3, 9]: 8.5 ± 0.6 s
- % change of delta reaction time vs control (=100%) [3, 10]: 84.1%
- DELTA REACTION TIME [3, 10]: 3.8 ± 0.7 s
- % change of delta reaction time vs control (=100%) [3, 11]: -88.3%
- DELTA REACTION TIME [3, 11]: 2.8 ± 0.6 s
- ED50 antagonising IL-1β evoked hyperalgesia [3]: 40 μg/150 g rat
- antagonism of hyperalgesia evoked by IL-1β [3]: more potent antagonists of I1-1β-evoked hyperalgesia than Lys-D-Pro-Thr
- % change of delta reaction time vs control (=100%) [4, 12]: -16.7%
- DELTA REACTION TIME [4, 12]: 14.0 ± 0.4 s
- % change of delta reaction time vs control (=100%) [4, 13]: -20.2%
- DELTA REACTION TIME [4, 13]: 13.4 ± 0.4 s
- % change of delta reaction time vs control (=100%) [4, 14]: -46±4%
- DELTA REACTION TIME [4, 14]: 9.0 ± 0.2 s
- % change of delta reaction time vs control (=100%) [4, 15]: -64.3%
- DELTA REACTION TIME [4, 15]: 6.0 ± 0.3 s
- ED50 antagonising PGE2 evoked hyperalgesia [4]: ~140 μg/150 g rat
- antagonism of hyperalgesia evoked by PGE2 [4]: antagonize hyperalgesia evoked by PGE2

SMILES: CC(C)[C@H](NC(=O)[C@@H]1CCCN1C(=O)[C@@H](N)CCCCN)C(=O)O [KPV, Lys-Pro-Val] (H-Lys-Pro-Val-OH)
- antipyretic effect [5]: antipyretic effect
- % change of delta reaction time vs control (=100%) [2]: -8.1%
- DELTA REACTION TIME [2]: 15.8 ± 0.3 s
- % change of delta reaction time vs control (=100%) [3, 8]: -21.3%
- DELTA REACTION TIME [3, 8]: 18.8 ± 0.3 s
- % change of delta reaction time vs control (=100%) [3, 9]: -52.7%
- DELTA REACTION TIME [3, 9]: 11.3 ± 0.5 s
- % change of delta reaction time vs control (=100%) [3, 10]: -69.9%
- DELTA REACTION TIME [3, 10]: 7.2 ± 0.6 s
- % change of delta reaction time vs control (=100%) [3, 11]: -83.7%
- DELTA REACTION TIME [3, 11]: 3.9 ± 0.3 s
- ED50 antagonising IL-1β evoked hyperalgesia [3]: 70 μg/150 g rat
- antagonism of hyperalgesia evoked by IL-1β [3]: more potent antagonists of I1-1β-evoked hyperalgesia than Lys-D-Pro-Thr
- % change of delta reaction time vs control (=100%) [4, 12]: -11.3%
- DELTA REACTION TIME [4, 12]: 14.9 ± 0.4 s
- % change of delta reaction time vs control (=100%) [4, 13]: -22.6%
- DELTA REACTION TIME [4, 13]: 13.0 ± 0.3 s
- % change of delta reaction time vs control (=100%) [4, 14]: -41.1%
- DELTA REACTION TIME [4, 14]: 9.9 ± 0.2 s
- % change of delta reaction time vs control (=100%) [4, 15]: -53.6%
- DELTA REACTION TIME [4, 15]: 7.8 ± 0.6 s
- ED50 antagonising PGE2 evoked hyperalgesia [4]: approximately 170 μg/150 g rat
- antagonism of hyperalgesia evoked by PGE2 [4]: antagonize hyperalgesia evoked by PGE2

SMILES: CN1CC[C@]23c4c5ccc(O)c4O[C@H]2[C@@H](O)C=C[C@H]3[C@H]1C5 [Morphine, morphine]
- reaction time difference, hot plate [6]: 3.52 s and 5.55 s
- antagonism of hyperalgesia evoked by DbcAMP ([2]; rat, in vivo): effective antagonist
- antagonism of on-going hyperalgesia [7]: able to antagonize on-going hyperalgesia

SMILES: Cc1c(N(C)CS(=O)(=O)O)c(=O)n(-c2ccccc2)n1C [dipyrone]
- antagonism of on-going hyperalgesia [7]: able to antagonize on-going hyperalgesia
